Laboratory results from ChEMBL document CHEMBL3885861, “Open TG-GATES”.

Species: Rattus norvegicus
Test: Open TG-GATES - Regimen: Daily Repeat
Assay type: toxicity, organism-based, Sprague-Dawley
Set-up: regimen Daily Repeat, gender Male, age 6 weeks
Conditions: in vivo, po, route gavage; for APTT / Bas / Eos / Fbg / Hb / Ht / Lym / MCHC / MCV / Mono / Neu / PT / Plat / RBC / Ret / WBC: tissue Blood; for KIDNEY_L / KIDNEY_R / KIDNEY_TOTAL: tissue Kidney; for LIVER: tissue Liver; for ALP / ALT / AST / BUN / CRE / Ca / Cl / DBIL / GLC / IP / K / LDH / Na / PL / RALB / TBIL / TC / TG / TP / gamma-GTP: tissue Plasma
[1] = 50 mg/kg, 72 h, dose level Middle, time 3 day
[2] = 50 mg/kg, […], dose level Middle, time 7 day
[3] = 50 mg/kg, […], dose level Middle, time 14 day
[4] = 50 mg/kg, […], dose level Middle, time 28 day
[5] = 150 mg/kg, 72 h, dose level High, time 3 day
[6] = 150 mg/kg, […], dose level High, time 7 day
[7] = 150 mg/kg, […], dose level High, time 14 day
[8] = 150 mg/kg, […], dose level High, time 28 day

## C1CCC(C(CC2CCCCN2)C2CCCCC2)CC1 (stereo not drawn) [PERHEXILINE]
[1]
  TERMINAL_BW: 222.3 g
  APTT: 19.9 s
  Bas: 0%
  Eos: 1%
  Fbg: 339.8 mg/dL
  Hb: 13.5 g/dL
  Ht: 40.4%
  Lym: 72.2%
  MCHC: 33.4%
  MCV: 62.8 fL
  Mono: 2.2%
  Neu: 23.2%
  PT: 16.5 s
  Plat: 125.7 x10_4/uL
  RBC: 643.2 x10_4/ul
  Ret: 6.1%
  WBC: 117.4 x10_2/uL
  KIDNEY_L: 1 g
  KIDNEY_R: 1 g
  KIDNEY_TOTAL: 2.1 g
  LIVER: 10.7 g
  ALP: 1647.4 IU/L
  ALT: 40 IU/L
  AST: 70.2 IU/L
  BUN: 13.6 mg/dL
  CRE: 0.1 mg/dL
  Ca: 10.8 mg/dL
  Cl: 107 meq/L
  DBIL: 0 mg/dL
  GLC: 184.8 mg/dL
  IP: 7.6 mg/dL
  K: 4.1 meq/L
  LDH: 241.2 IU/L
  Na: 141.8 meq/L
  PL: 146.8 mg/dL
  RALB: 3 g/dL
  TBIL: 0.008 mg/dL
  TC: 72.8 mg/dL
  TG: 125 mg/dL
  TP: 5.6 g/dL
  gamma-GTP: 0.8 IU/L
[2]
  TERMINAL_BW: 248.7 g
  APTT: 22.2 s
  Bas: 0%
  Eos: 0.6%
  Fbg: 314 mg/dL
  Hb: 14.1 g/dL
  Ht: 41.6%
  Lym: 79.8%
  MCHC: 33.9%
  MCV: 62.6 fL
  Mono: 1.6%
  Neu: 16.6%
  PT: 15.8 s
  Plat: 113.7 x10_4/uL
  RBC: 666.4 x10_4/ul
  Ret: 4.7%
  WBC: 85.4 x10_2/uL
  KIDNEY_L: 1 g
  KIDNEY_R: 1 g
  KIDNEY_TOTAL: 2.1 g
  LIVER: 11.3 g
  ALP: 1686.4 IU/L
  ALT: 38.8 IU/L
  AST: 67 IU/L
  BUN: 18 mg/dL
  CRE: 0.2 mg/dL
  Ca: 10.5 mg/dL
  Cl: 106.2 meq/L
  DBIL: 0 mg/dL
  GLC: 202 mg/dL
  IP: 7.3 mg/dL
  K: 4.1 meq/L
  LDH: 192 IU/L
  Na: 142.8 meq/L
  PL: 166.2 mg/dL
  RALB: 3.1 g/dL
  TBIL: 0.004 mg/dL
  TC: 78.4 mg/dL
  TG: 181 mg/dL
  TP: 5.8 g/dL
  gamma-GTP: 1 IU/L
[3]
  TERMINAL_BW: 302.3 g
  APTT: 23.1 s
  Bas: 0%
  Eos: 0.4%
  Fbg: 303 mg/dL
  Hb: 14 g/dL
  Ht: 40.8%
  Lym: 82.2%
  MCHC: 34.3%
  MCV: 61.7 fL
  Mono: 1.4%
  Neu: 15%
  PT: 15.8 s
  Plat: 118.8 x10_4/uL
  RBC: 662.8 x10_4/ul
  Ret: 5.3%
  WBC: 116.6 x10_2/uL
  KIDNEY_L: 1.2 g
  KIDNEY_R: 1.2 g
  KIDNEY_TOTAL: 2.3 g
  LIVER: 12.9 g
  ALP: 1470.4 IU/L
  ALT: 42.2 IU/L
  AST: 76.6 IU/L
  BUN: 18.6 mg/dL
  CRE: 0.2 mg/dL
  Ca: 10.7 mg/dL
  Cl: 107.4 meq/L
  DBIL: 0 mg/dL
  GLC: 209.8 mg/dL
  IP: 6.5 mg/dL
  K: 4.2 meq/L
  LDH: 231.4 IU/L
  Na: 143.2 meq/L
  PL: 155.2 mg/dL
  RALB: 3 g/dL
  TBIL: 0.002 mg/dL
  TC: 72.2 mg/dL
  TG: 178.6 mg/dL
  TP: 5.8 g/dL
  gamma-GTP: 1.6 IU/L
[4]
  TERMINAL_BW: 361.8 g
  APTT: 22.2 s
  Bas: 0%
  Eos: 0.6%
  Fbg: 314 mg/dL
  Hb: 14.1 g/dL
  Ht: 41.6%
  Lym: 79.8%
  MCHC: 33.9%
  MCV: 62.6 fL
  Mono: 1.6%
  Neu: 16.6%
  PT: 15.8 s
  Plat: 113.7 x10_4/uL
  RBC: 666.4 x10_4/ul
  Ret: 4.7%
  WBC: 85.4 x10_2/uL
  KIDNEY_L: 1.3 g
  KIDNEY_R: 1.3 g
  KIDNEY_TOTAL: 2.5 g
  LIVER: 15 g
  ALP: 1171.8 IU/L
  ALT: 39.8 IU/L
  AST: 67.2 IU/L
  BUN: 18.8 mg/dL
  CRE: 0.2 mg/dL
  Ca: 10.4 mg/dL
  Cl: 107 meq/L
  DBIL: 0 mg/dL
  GLC: 209.2 mg/dL
  IP: 6.6 mg/dL
  K: 4 meq/L
  LDH: 186.8 IU/L
  Na: 143 meq/L
  PL: 156.4 mg/dL
  RALB: 3.1 g/dL
  TBIL: 0.004 mg/dL
  TC: 71.6 mg/dL
  TG: 157.4 mg/dL
  TP: 6.1 g/dL
  gamma-GTP: 1.4 IU/L
[5]
  TERMINAL_BW: 212.7 g
  APTT: 22.7 s
  Bas: 0%
  Eos: 0.8%
  Fbg: 312.8 mg/dL
  Hb: 13.9 g/dL
  Ht: 41.3%
  Lym: 80%
  MCHC: 33.8%
  MCV: 61.4 fL
  Mono: 1.8%
  Neu: 16.5%
  PT: 16.8 s
  Plat: 130.8 x10_4/uL
  RBC: 673.2 x10_4/ul
  Ret: 4.4%
  WBC: 100 x10_2/uL
  KIDNEY_L: 1 g
  KIDNEY_R: 0.9 g
  KIDNEY_TOTAL: 1.9 g
  LIVER: 9.8 g
  ALP: 1606.6 IU/L
  ALT: 43.6 IU/L
  AST: 69 IU/L
  BUN: 15.4 mg/dL
  CRE: 0.2 mg/dL
  Ca: 11 mg/dL
  Cl: 106.6 meq/L
  DBIL: 0.002 mg/dL
  GLC: 187.2 mg/dL
  IP: 7.4 mg/dL
  K: 4 meq/L
  LDH: 267.2 IU/L
  Na: 142.4 meq/L
  PL: 150 mg/dL
  RALB: 3 g/dL
  TBIL: 0.006 mg/dL
  TC: 75.6 mg/dL
  TG: 107.8 mg/dL
  TP: 5.4 g/dL
  gamma-GTP: 1 IU/L
[6]
  TERMINAL_BW: 255.5 g
  APTT: 23.3 s
  Bas: 0%
  Eos: 0.6%
  Fbg: 313.8 mg/dL
  Hb: 14.3 g/dL
  Ht: 42.2%
  Lym: 79%
  MCHC: 33.9%
  MCV: 63.4 fL
  Mono: 1.4%
  Neu: 17.8%
  PT: 15.5 s
  Plat: 120.2 x10_4/uL
  RBC: 665.4 x10_4/ul
  Ret: 5.2%
  WBC: 103.4 x10_2/uL
  KIDNEY_L: 1.1 g
  KIDNEY_R: 1.2 g
  KIDNEY_TOTAL: 2.3 g
  LIVER: 11.9 g
  ALP: 1641 IU/L
  ALT: 35 IU/L
  AST: 61.8 IU/L
  BUN: 17.8 mg/dL
  CRE: 0.2 mg/dL
  Ca: 10.6 mg/dL
  Cl: 106.2 meq/L
  DBIL: 0 mg/dL
  GLC: 197.6 mg/dL
  IP: 8.1 mg/dL
  K: 4.3 meq/L
  LDH: 200.4 IU/L
  Na: 142.8 meq/L
  PL: 158.4 mg/dL
  RALB: 3 g/dL
  TBIL: 0.006 mg/dL
  TC: 76 mg/dL
  TG: 138.4 mg/dL
  TP: 5.7 g/dL
  gamma-GTP: 1.4 IU/L
[7]
  TERMINAL_BW: 291.9 g
  APTT: 22.3 s
  Bas: 0%
  Eos: 0.8%
  Fbg: 311 mg/dL
  Hb: 14.4 g/dL
  Ht: 41.8%
  Lym: 72%
  MCHC: 34.4%
  MCV: 59.9 fL
  Mono: 2.2%
  Neu: 24%
  PT: 15.8 s
  Plat: 115.8 x10_4/uL
  RBC: 697.8 x10_4/ul
  Ret: 4.7%
  WBC: 121.2 x10_2/uL
  KIDNEY_L: 1.2 g
  KIDNEY_R: 1.2 g
  KIDNEY_TOTAL: 2.4 g
  LIVER: 13 g
  ALP: 1470.2 IU/L
  ALT: 38 IU/L
  AST: 63.2 IU/L
  BUN: 18.2 mg/dL
  CRE: 0.2 mg/dL
  Ca: 10.7 mg/dL
  Cl: 105.8 meq/L
  DBIL: 0.004 mg/dL
  GLC: 206.6 mg/dL
  IP: 7.2 mg/dL
  K: 4.2 meq/L
  LDH: 180.2 IU/L
  Na: 143 meq/L
  PL: 151.8 mg/dL
  RALB: 3 g/dL
  TBIL: 0.008 mg/dL
  TC: 70 mg/dL
  TG: 154.6 mg/dL
  TP: 5.8 g/dL
  gamma-GTP: 1.2 IU/L
[8]
  TERMINAL_BW: 322.6 g
  APTT: 23.3 s
  Bas: 0%
  Eos: 0.6%
  Fbg: 313.8 mg/dL
  Hb: 14.3 g/dL
  Ht: 42.2%
  Lym: 79%
  MCHC: 33.9%
  MCV: 63.4 fL
  Mono: 1.4%
  Neu: 17.8%
  PT: 15.5 s
  Plat: 120.2 x10_4/uL
  RBC: 665.4 x10_4/ul
  Ret: 5.2%
  WBC: 103.4 x10_2/uL
  KIDNEY_L: 1.2 g
  KIDNEY_R: 1.2 g
  KIDNEY_TOTAL: 2.5 g
  LIVER: 12.8 g
  ALP: 1254 IU/L
  ALT: 39.8 IU/L
  AST: 62.8 IU/L
  BUN: 16 mg/dL
  CRE: 0.2 mg/dL
  Ca: 10.4 mg/dL
  Cl: 107.2 meq/L
  DBIL: 0 mg/dL
  GLC: 199.2 mg/dL
  IP: 6.4 mg/dL
  K: 4 meq/L
  LDH: 162.8 IU/L
  Na: 144.2 meq/L
  PL: 148 mg/dL
  RALB: 3 g/dL
  TBIL: 0.006 mg/dL
  TC: 68 mg/dL
  TG: 150.4 mg/dL
  TP: 5.9 g/dL
  gamma-GTP: 1 IU/L
